Measurements as given in US7611729B2, “Dosage forms having prolonged active ingredient release” (Lunamed AG, priority 2001, dated 2009).

Tested on: adenocarcinoma of the prostate
Experiment: Human test results: oral treatment of prostate cancer patients with slow release tablets
Assay type: in vivo
Conditions: general statement
Method: Diseases that can be beneficially influenced by the present dosage form include in particular benign prostate hyperplasy, cancer, leukemias, cystic fibrosis, AIDS, kidney and liver diseases, thalassemia and urea cycle disorders. For example, the treatment of an adenocarcinoma of the prostate can be carried out by administering twice daily, e.g. in the morning and evening, a pharmaceutical tablet formulation containing 250 mg of sodium 4-phenylbutyrate. […] Treatment may be continued for several month or years until a satisfactory effect is observed or the patient is total free of the disease.
Following are descriptions of treatments and test results obtained from human patients.
This patient presented on Apr. […] Because of progressive bone pains they underwent bilateral orchiectomy in February 1996. They became free of pain until November 1998 when they again suffered bone pains mainly in their back. They were than treated orally twice daily with 250 mg of sodium phenylbutyrate retard tablets according to Example 1. Four weeks later they were free of pain.
This patient presented in March 1997 with a pathological fracture of the 8th thoracic vertebra caused by metastatic destruction. The multiple biopsies of the slightly enlarged prostate was positive for adenocarcinoma on both sides. […] On Apr. 10, 1997 they underwent bilateral orchidectomy. […]

Which “therapeutic effect (pains)” value (adenocarcinoma of the prostate, tablet with 250 mg twice daily, after treatment of about one month) does the source give for `O=C([O-])CCCc1ccccc1.[Na+]` [sodium 4-phenylbutyrate] here?
The value was “pains disappear”.

And the side effects (long period of treatment)?
Its side effects is “no side effects”.
